Reference: article PMC10728220, “Novel 3-(pyrazol-4-yl)-2-(1H-indole-3-carbonyl)acrylonitrile derivatives induce intrinsic and extrinsic apoptotic death mediated P53 in HCT116 colon carcinoma” (Scientific Reports, 2023)
≈ marks a conversion by molar mass, not a printed value.

What was measured:
[1] = tested on: colorectal carcinoma (HCT116); assay: Cytotoxic MTT assay, HCT116; format: cell-based, human
Experimental: (§1) MTT protocol was performed to study the viability of cells after treatment with the tested compounds. The studied cell lines (A549 and HCT116) were cultured and grown in RPMI‐1640 media, while HFB4 cells were reserved in DMEM‐F12 media. Both media were supplemented with 10% FBS, 1% L‐glutamine, and 1% antibiotic–antimycotic mixture. The cell lines were grown at conditions of 37 °C and 5% CO2. 10 × 10^3 of A549, and HCT116 cells and the same count of normal melanocytes (HFB4) were cultured in a 96‐well plate. The selected cultured cells were kept at 37°C and 5% CO2 overnight. Then, the medium was discarded after 24 h of incubation, and 100 µL from different concentrations of the studied compounds dissolved in fresh medium without serum, with final concentrations of 100, 50, 25, 12.5, 6.25, 3.125, 1.56, and 0.78 µg/mL was added. The treated cells were then incubated for 48 h. After that, 50 µL of MTT was added into each well for 4 h for the formazan crystals to be formed. Finally, 200 µl of 10% sodium dodecyl sulphate (SDS) was added to each well, and plates were kept at room temperature overnight to allow the reaction to be stopped. The optical density at 575 nm was read using a microplate multi-well reader, and the percentage of cell viability was calculated. The dose–response curve was drawn to calculate the IC50 values for each compound using the prism GraphPad 5 program, [84]. 5 Fluorouracil, a commercial anticancer drug was used as a reference drug (positive control). Negative untreated cell control was used in this assay.

lung carcinoma (A549) = assay: Cytotoxic MTT assay, A549; format: cell-based; settings: Homo sapiens, 48 h treatment
Experimental: as §1

CDK4 = assay: RT-PCR gene expression, CDK4, in HCT116; format: cell-based, human; settings: HCT116, 6.76 µg/mL, 48 h, relative to untreated control
Experimental: In this current research, relative gene expression related to apoptosis should be studied well because they were very interesting to understand the effect of our selected compound on this important biological process. HCT116 cells were treated with chalcone 7f (6.76µg/mL) for 48 h, and then subjected to qPCR analysis regarding control samples. The effect of chalcone 7f on the expression level of (Bax, p53, Bcl2, and CDK4) genes was assessed using the qPCR technique. […] As indicated in this schematic diagram, the expression of apoptotic genes (Bax and P53) was enhanced by the effect of chalcone 7f to reach (3.662, and 5.435) respectively, relative to the control.
Total RNA was extracted from the compound 7f-treated HCT116 cells and the untreated cells using the RNA Purification Kit GeneJET (Thermo scientific, ON, Canada) 0.1 µg of the extracted RNA was reverse transcribed into complementary DNA (cDNA) using High-Capacity cDNA Reverse Transcription Kit (Thermo Scientific, ON, Canada). qPCR was done using Brilliant SYBR Green qPCR master mix (Applied Biosystems, San Francisco, CA, USA) in One Step Plus Real-Time PCR System (Applied Biosystems, San Francisco, CA, USA). […] The relative gene expression was determined using the 2^−ΔΔCt equation after normalization to the expression of β-actin (housekeeping gene) (Qiagen, CA, USA)(10 pmol/µL)[85], [86]. […]

Human caspase-9 = assay: ELISA caspase 9 production in HCT116; format: cell-based; settings: HCT116 treated with 7f
Experimental: The compound 7f induced caspase 9 production in a dose–response approach. This was achieved by using the following concentrations of chalcone 7f (1.6, 3.1, 6.3, 12.5, 25, 50, 100 ng/ml). There was a continuing rise in the caspase 9 production level by increasing the concentrations regularly. Compound 7f was able to stimulate the production of caspase 9 by inducing a 21.43 ng/ml of caspase 9.
The quantitative measurements of Human caspases-3, -8, and -9 concentrations in HCT116 cell culture lysates were performed using ELISA assay. The protocols were followed up based on the manuscript instructions described in the following kits; Invitrogen human Caspase-3 Elisa Kit, Catalog # KHO1091, DRG® human Caspase-8 ELISA Kit, Catalog # (EIA-4863), and DRG® human Caspase-9 ELISA Kit, Catalog # (EIA-4860)respectively. In short, the procedure described in the above protocols was as instructed; all reagents, standards, and samples were prepared. Then, 100 μL of standard or samples were added to each well and incubated at room temperature for 2 h. […] All readings were measured immediately at a wavelength of 450 nm. From the readings of the standards, a standard curve was plotted using curve fitting software. Then, the concentrations for unknown samples and controls were measured from the standard curve.

Human caspase-3 = assay: ELISA caspase 3 production in HCT116; format: cell-based; settings: HCT116, 7f at its IC50 value
Experimental: Apoptosis is known and identified by specific characterizations in which the activation of caspases plays an important role. In apoptotic pathways, mechanisms of (activation/inactivation) of these proteins are not fully understood. The significance of understanding the mechanistic machinery that controls programmed cell death, being initiated by various chemotherapeutic agents is very critical and attracts the attention of researchers in this area. In this assay, cells were incubated in the absence or presence of 7f with varying concentrations (39, 78, 156, 313, 625, 1250, and 2500 ng/ml), inducing a concentration-dependent increase in caspase3 production in HCT116. […] A concentration of 7f was used at its IC50 value and compared directly to the control. […] However, there was only 103.5 pg/ml induced by control cells. It was interesting to note that chalcone 7f stimulated the production of caspase 3 protein in HCT116 cells 4.8-fold compared to control as outlined in Fig. 7.
The quantitative measurements of Human caspases-3, -8, and -9 concentrations in HCT116 cell culture lysates were performed using ELISA assay. […] All readings were measured immediately at a wavelength of 450 nm. From the readings of the standards, a standard curve was plotted using curve fitting software. Then, the concentrations for unknown samples and controls were measured from the standard curve.

N#C/C(=C\c1cn(-c2ccccc2)nc1-c1ccc([N+](=O)[O-])cc1)C(=O)c1c[nH]c2ccccc12 [Compound 7f, (E)-2-(1H-Indole-3-carbonyl)-3-(3-(4-nitrophenyl)-1-phenyl-1H-pyrazol-4-yl)acrylonitrile]
Selectivity index (SI) = IC50 in normal cells/IC50 in tumor cells ([1]; HFB4 versus HCT116): 8.4
IC50 ([1]; Homo sapiens, HCT-116, MTT, 48 h treatment): 6.76 µg/mL (≈ 14.7 µM)
IC50 (lung carcinoma (A549)): > 100 µg/mL
RT-PCR fold change CDK4 (CDK4): 0.454 fold
caspase 9 production (Human caspase-9): 21.43 ng/mL
caspase 9 production, fold increase compared to control cells (Human caspase-9): ~4.641 fold
caspase 3 production, fold compared to control (Human caspase-3): 4.8 fold
caspase 3 protein production (Human caspase-3; control cells 103.5 pg/ml): 504.1 pg/mL
